# Key:
# HL60 cells = assay: MTT assay, anti-cancer activity on HL60 cells in vitro; assay type: cell-based, human; set-up: Cell Growth: unit not given here; conditions: for IC50: MTT, 72 hours, read-out: IC50 in HL60 Cell; for anti-cancer activity (IC50) compared with cisplatin, in words: HL60 cell; for Cell Growth: HL60, 72 hours
# Method: (§1) In order to examine anti-cancer activity of Pt(IV) complexes according to the present invention, MTT, i.e., [3-(4,5-dimethylthiazol-2-yl)-2,5-diphenyltetrazolium bromide] assay was performed on HL60 and L1210 which are leukemic cell of human and mice, respectively.
# (§2) MTT assay is a quantitative color analysis based on that mitochondrial dehydrogenase, one of cell enzymes, changes yellow water-soluble MTT into deep-blue water-insoluble formazan, and the amount of the generated formazan is proportioned to active cell numbers.^122-124)
# (§3) HL60 and L1210, suspended leukemic cells of humans and mice, respectively are used as cancer cells for determining the anti-cancer activity of the Pt (IV) complex according to the above Examples. They were obtained by cultivating the frozen cells alloted from Korean Cell Line Bank.
# (§4) Cells were subject to subculture at the interval of 2-3 days at 37° C. in the presence of 5% CO2 in RPMI 1640 culture medium controlled to contain 1% penicillin-streptomycin (10,000 unit/ml) and 10% FBS, with keeping the cell number between 2×10^5/ml-5×10^5/ml.
# (§5) Pt (IV) complexes prepared by the Examples of the present invention were used as pharmaceutical compounds. Among them, a water-soluble compound was used as it was, and a water-insoluble compound was used after dissolving in DMSO or 95% ethanol, adding PBS to be 2 mM concentarion, filtering with 0.2μ syringe filter to be sterile state and performing serial-dilution with a culture medium to control predetermined concentrations. The final concentration of DMSO or 95% ethanol in cell culture medium was controlled to be below 0.1%.
# HL60 and L1210 cells were put into 96-well plate in the amount of 10^4/well and then stabilized for a half hour at 37° C. in the presence of 5% CO2. […]
# (§6) After cultivating HL60 cell at 37° C. in the presence of 5% CO2 for 72 hours and L1210 for 48 hours, MTT reagent (2 mg/ml) was added 50 μl/well, and an additional cultivation was performed at 37° C. in the presence of 5% CO2 for 4 hours. Then, after centrifuging the resultant at 2000 rpm for 5 minites, the supernatant was removed by 170 μl/well.
# (§7) Then, after adding DMSO 150 μl/well, the resultant was laid at 40° C. for 30 minutes and stirred for 3 minutes. Then, absorption test using ELISA reader was performed at 570 nm.
# (§8) For calibration, a blank test was performed on the same 96-well plate under the same condition.
# (§9) The above-described experiment was performed on more than 3 wells under the same condition with different concentration, and the same experiment was repeated over 3 times.
# L1210 cells [1] = assay: MTT assay, anti-cancer activity on L1210 cells in vitro; assay type: cell-based, mice; set-up: Cell Growth: unit not given here; conditions: for anti-cancer activity (IC50) compared with cisplatin, in words: L1210 cell; for Cell Growth: L1210, 48 hours; for IC50: MTT, 48 hours, read-out: IC50 in L1210 Cell
# Method: as §1, §2, §3, §4, §5
# HL60 and L1210 cells were put into 96-well plate in the amount of 10^4/well and then stabilized for a half hour at 37° C. in the presence of 5% CO2.
# as §6, §7, §8, §9
# male ICR mice = assay: Nephrotoxicity test, serologic analysis (BUN, creatinine, uric acid) after i.p. injection; assay type: in vivo; set-up: unit not given here; conditions: serum, dose 8x IC50 (cisplatin 7x IC50), average ± SD of 5-6 ICR mice
# Method: In order to serologically analyze nephrotoxicity of various Pt complexes, after injecting each agent intraperitneally, blood was exsanguinated after 6 hours, 1 day, 3 days and 7 days, respectively. Then, serum was seperated f rom the blood to detect the values of BUN (Blood urea nitrogen), creatinine and uric acid.^133)
# As an experimental animal, male ICR mice each weighing about 25 g were purchased from Korean Experimental Animal Center. The experimental animals were bred in SPF(Specific Pathogen Free) room in Medical School of HanYang University, and food (purchased from SamYang) and water were supplied unrestrictedly.
# The experimental animals were divided into a normal control group, a control group and an experimental group, and the experimental group was again divided into a cisplatin dispensing group, a 7(Ac)Cl treated group, a 7(TF)Cl treated group, a 7(Ac)M treated group, a 7(TF)M treated group and a 7FMN treated group.
# Each groups comprised 20-22 mice, and each group was again divided into a 6 hour-treating group, a 1 day-treating group, a 3 day-treating group and a 7 day-treating group, which contains 5-6 mice, respectively.
# First, a predetermined amount of agent was dissolved in DMSO or ethanol, and then PBS was added thereto to make the total volume be 6.6 ml. At this time, the content of DMSO or ethanol was controlled to be below 5%.
# The agent dissolved in PBS was filtered using 0.2μ syringe filter, sterilized, and injected into intraperitoneally. Then, after 6 hours, 1 day, 3 days and 7 days, exsanguination was performed.
# After seperating serum by centrifuging the blood exsanguinated from mice at 4,500 rpm for 15 minutes, the serum was kept at the temperature −20° C. BUN (Blood urea nitrogen), creatinine and uric acid were detected using a biochemical automatic analyzing apparatus (Olympus reply, Japan) and average and standard deviation were calculated from the obtained data.
# Control group was dissolved in PBS and injected in dose of 6.6 ml/Kg.
# [2] = system: proximal renal tubule cells; assay: Nephrotoxicity test, electron microscopic findings (TEM) of proximal renal tubule; assay type: in vivo, mice
# Method: In order to observe the ultra-structural changes of proximal renal tubule cells, a part of renal cortex of kidney was finely cut in the size of 1 mm^3, pre-fixed with 2% glutaraldehyde-2.5% paraformaldehyde solution, which is prepared with Millonig's phosphate buffer (pH 7.2) at 4° C. for 2-4 hours, and post-fixed with 1% osmium tetroxide for 2 hours, which is diluted with the same buffer solution. Then, after dehydrating the specimen according to ethanol-acetone concentration difference and embeding in Epon 812, it was made to be 2-5 μm thickness in thin section using ultramicrotome and temporarily stained with methylene blue to determine a proper site. Then, it was prepared tobe 60-80 nm thickness of the ultra-thin section, subject to double-staining with uranyl acetate and lead citrate, and observed with TEM (transmission electron microscope; Hitachi-600, Japan).
# L1210 cells [3] = conditions: literature value (J. Med. Chem. 1994, vol.37, No.10, 1471-1485); cited from earlier work
# [4] = 1 Day after single i.p. injection
# [5] = 7 Day after single i.p. injection
# [6] = 6 hour after single i.p. injection
# [7] = 3 day after single i.p. injection
smiles,measurement,setting,value
"N.N.[Cl][Pt][Cl] [CDDP, cis-Diaminedichloroplatinum(II)]",IC50,HL60 cells,2.74 µM
"O=C([O][Pt]1([Cl])([Cl])([O]C(=O)C(F)(F)F)[NH]CCCC[NH]1)C(F)(F)F [7(TF)Cl, trans, cis-ditriflioroacetato,dichloro-1,4-butanediamine Pt(IV) complex]","anti-cancer activity (IC50) compared with cisplatin, in words",L1210 cells [1],superior to cisplatin(CDDP)
same,"anti-cancer activity (IC50) compared with cisplatin, in words",HL60 cells,superior to that of cisplatin
same,BUN after the 1st time injection,male ICR mice; [4],23.1 ± 3.3
same,Uric acid after the 1st time injection,male ICR mice; [4],1.82 ± 0.5
same,BUN after the 1st time injection,male ICR mice; [5],20.7 ± 3.5
same,Uric acid after the 1st time injection,male ICR mice; [5],1.88 ± 0.3
same,BUN after the 1st time injection,male ICR mice; [6],28.8 ± 6.4
same,Uric acid after the 1st time injection,male ICR mice; [6],2.2 ± 0.9
same,BUN after the 1st time injection,male ICR mice; [7],18.1 ± 2.3
same,Uric acid after the 1st time injection,male ICR mice; [7],2.22 ± 0.7
same,ultra-structural changes of proximal renal tubule epithelial cells (TEM),[2]; sacrificed 6 hours after i.p. injection,seriously damaged findings
same,ultra-structural changes of proximal renal tubule epithelial cells (TEM),[2]; sacrificed 3 days after i.p. injection,most of cytoplasmic organelles were damaged
"O=C1CC(=O)[O][Pt]2([O]C(=O)C(F)(F)F)([O]C(=O)C(F)(F)F)([NH]CCCC[NH]2)[O]1 [7(TF)M, trans-ditrifluoroacetato,malonato-1,4-butanediamine Pt(IV) complex]","anti-cancer activity (IC50) compared with cisplatin, in words",HL60 cells,higher than that of cisplatin
same,BUN after the 1st time injection,male ICR mice; [4],23.1 ± 4.8
same,Uric acid after the 1st time injection,male ICR mice; [4],1.8 ± 0.4
same,BUN after the 1st time injection,male ICR mice; [5],22.3 ± 1.7
same,Uric acid after the 1st time injection,male ICR mice; [5],1.96 ± 0.3
same,BUN after the 1st time injection,male ICR mice; [6],22.1 ± 3.1
same,Uric acid after the 1st time injection,male ICR mice; [6],2.04 ± 0.3
same,BUN after the 1st time injection,male ICR mice; [7],22.9 ± 1.7
same,Uric acid after the 1st time injection,male ICR mice; [7],1.82 ± 0.4
"O=C1CC(=O)[O][Pt]2([OH])([OH])([NH]CCCC[NH]2)[O]1 [7(OH)M, trans-dihydroxo,malonato-1,4-butanediamine Pt(IV) complex]","anti-cancer activity (IC50) compared with cisplatin, in words",L1210 cells [1],lower anti-cancer activity than that of cisplatin
same,"anti-cancer activity (IC50) compared with cisplatin, in words",HL60 cells,lower anti-cancer activity than that of cisplatin
"CC(=O)[O][Pt]12([O]C(C)=O)([NH]CCCC[NH]1)[O]C(=O)CC(=O)[O]2 [7(Ac)M, trans-diacetato,malonato-1,4-butanediamine Pt (IV) complex]","anti-cancer activity (IC50) compared with cisplatin, in words",HL60 cells,higher than that of cisplatin
same,BUN after the 1st time injection,male ICR mice; [4],22.0 ± 4.1
same,Uric acid after the 1st time injection,male ICR mice; [4],2.34 ± 1.0
same,BUN after the 1st time injection,male ICR mice; [5],21.5 ± 5.1
same,Uric acid after the 1st time injection,male ICR mice; [5],1.52 ± 0.3
same,BUN after the 1st time injection,male ICR mice; [6],24.0 ± 6.2
same,Uric acid after the 1st time injection,male ICR mice; [6],2.66 ± 0.7
same,BUN after the 1st time injection,male ICR mice; [7],22.4 ± 3.3
same,Uric acid after the 1st time injection,male ICR mice; [7],2.0 ± 1.5
"O=C1CC(=O)[O][Pt]2([NH]CCCC[NH]2)[O]1 [7 Mal, malonato-1,4-butanediamine Pt(II) complex]",Cell Growth,L1210 cells [1]; 0.01 μM,91
same,Cell Growth,L1210 cells [1]; 0.05 μM,95
same,Cell Growth,L1210 cells [1]; 0.1 μM,93
same,Cell Growth,L1210 cells [1]; 0.5 μM,84.8
same,Cell Growth,L1210 cells [1]; 1 μM,80.1
same,Cell Growth,L1210 cells [1]; 5 μM,68
same,Cell Growth,L1210 cells [1]; 10 μM,55
same,Cell Growth,L1210 cells [1]; 50 μM,26.1
same,Cell Growth,L1210 cells [1]; 100 μM,20.5
same,IC50,L1210 cells [1],15 µM
same,Cell Growth,HL60 cells; 0.01 μM,92
same,Cell Growth,HL60 cells; 0.05 μM,89
same,Cell Growth,HL60 cells; 0.1 μM,89
same,Cell Growth,HL60 cells; 0.5 μM,82.6
same,Cell Growth,HL60 cells; 1 μM,78.8
same,Cell Growth,HL60 cells; 5 μM,63.2
same,Cell Growth,HL60 cells; 10 μM,57
same,Cell Growth,HL60 cells; 50 μM,27
same,Cell Growth,HL60 cells; 100 μM,20
same,IC50,HL60 cells,13.8 µM
"[NH2][Pt]1([NH2])[O]C(=O)C2(CCC2)C(=O)[O]1 [carboplatin, cis-diamine(1,1-cyclobutanedicarboxylato)platinum(II)]",IC50 relative to that of cisplatin,L1210 cells [3],about 10 times
"[Cl][Pt]1([Cl])[NH]CCCC[NH]1 [7 Cl, cis-dichloro-1,4-butanediamine Pt(II) complex]",IC50,L1210 cells [1],2.01 µM
same,IC50,HL60 cells,1.83 µM
"[OH][Pt]1([OH])([Cl])([Cl])[NH]CCCC[NH]1 [7(OH)Cl, trans, cis-dihydroxo,dichloro-1,4-butanediamine Pt(IV) complex]","anti-cancer activity (IC50) compared with cisplatin, in words",L1210 cells [1],lower anti-cancer activity than that of cisplatin
same,"anti-cancer activity (IC50) compared with cisplatin, in words",HL60 cells,lower anti-cancer activity than that of cisplatin
"CC(=O)[O][Pt]1([Cl])([Cl])([O]C(C)=O)[NH]CCCC[NH]1 [7(Ac)Cl, trans, cis-diacetato,dichloro-1,4-butanediamine Pt(IV) complex]","anti-cancer activity (IC50) compared with cisplatin, in words",L1210 cells [1],superior to cisplatin(CDDP)
same,"anti-cancer activity (IC50) compared with cisplatin, in words",HL60 cells,superior to that of cisplatin
same,BUN after the 1st time injection,male ICR mice; [4],19.4 ± 3.3
same,Uric acid after the 1st time injection,male ICR mice; [4],1.92 ± 0.4
same,BUN after the 1st time injection,male ICR mice; [5],22.1 ± 3.4
same,Uric acid after the 1st time injection,male ICR mice; [5],1.74 ± 0.5
same,BUN after the 1st time injection,male ICR mice; [6],29.2 ± 1.8
same,Uric acid after the 1st time injection,male ICR mice; [6],2.18 ± 1.0
same,BUN after the 1st time injection,male ICR mice; [7],19.2 ± 2.8
same,Uric acid after the 1st time injection,male ICR mice; [7],1.88 ± 0.6
same,nephrotoxicity compared with cisplatin (conclusion from serologic and electron microscopic analysis),"[2]; 7(Ac)Cl 6 mg/kg, 7(TF)Cl 5.3 mg/kg (8 times of IC50), cisplatin 6 mg/kg (7 times of IC50), i.p.",weaker toxicity than cisplatin
same,ultra-structural changes of proximal renal tubule epithelial cells (TEM),[2]; one day after i.p. injection,cytoplasmic organelle damages
"NCCN.[Cl][Pt][Cl] [5 Cl, cis-dichloro,ethylenediamine Pt(II) complex]",IC50,L1210 cells [1],11 µM
same,IC50,HL60 cells,11.7 µM
"[Cl][Pt]1([Cl])[NH]CCC[NH]1 [6 Cl, cis-dichloro-1,3-propanediamine Pt(II) complex]",IC50,L1210 cells [1],19.3 µM
same,IC50,HL60 cells,16.1 µM
